According to patent publication US20210369720A1, “SYNERGISTIC COMPOSITION HAVING NEUROPROTECTIVE PROPERTIES AND METHODS OF USE THEREOF” (Rutgers, The State University of New Jersey, priority 2018, published 2021):

Key:
[1] = system: α-Syn PFF inoculated WT mice; assay: Rotarod, α-Syn PFF inoculated WT mice; type: in vivo; conditions: EHT 12 mg/kg/day in diet and/or caffeine 50 mg/kg/day in drinking water from weaning, 6 months post-inoculation
Excerpt: (§1) Thy1-α-synuclein transgenic mice (Syn^Tg) on BDF1 background overexpressing human wild-type α-synuclein under the control of the Thy1 promoter were maintained by mating heterozygous transgenic females with WT BDF1 males (Rockenstein E, et al. (2002) Differential neuropathological alterations in transgenic mice expressing alpha-synuclein from the platelet-derived growth factor and Thy-1 promoters. J Neurosci Res 68(5):568-578). BDF1 mice (mixed C57BL/6-DBA/2) were generated every three months by mating female C57BL/6 (The Jackson Laboratory) and male DBA/2 mice (Charles River). Experiments were performed with male transgenic mice and their WT littermates. […] Wild-type littermates received regular water and control chow. […] At two months of age, mice were inoculated with α-Syn PFF unilaterally in the striatum. These treatments continued throughout the experiment until animals were sacrificed. Mice were weighed and their food and water intake was quantified weekly. Animals were housed 2-5/cage in an AAALAC approved facility in a temperature- and humidity-controlled environment under a 12-hour light/dark cycle and were maintained on a diet of lab chow and water ad libitum. […]

[2] = system: TH positive dopaminergic neurons of the substantia nigra; assay: Nigral TH positive neuron count, α-Syn PFF inoculated WT mice; type: in vivo; conditions: each compound individually, PFF alone reduced neurons by 51% vs PBS
Excerpt: as §1

[3] = system: phosphorylated α-synuclein (p-α-Syn); assay: Immunohistochemical staining of p-α-Syn, α-Syn PFF inoculated WT mice; type: in vivo; conditions: EHT 12 mg/kg/day and/or caffeine 50 mg/kg/day
Excerpt: Thy1-α-synuclein transgenic mice (Syn^Tg) on BDF1 background overexpressing human wild-type α-synuclein under the control of the Thy1 promoter were maintained by mating heterozygous transgenic females with WT BDF1 males (Rockenstein E, et al. (2002) Differential neuropathological alterations in transgenic mice expressing alpha-synuclein from the platelet-derived growth factor and Thy-1 promoters. J Neurosci Res 68(5):568-578). BDF1 mice (mixed C57BL/6-DBA/2) were generated every three months by mating female C57BL/6 (The Jackson Laboratory) and male DBA/2 mice (Charles River). Experiments were performed with male transgenic mice and their WT littermates. […] Wild-type littermates received regular water and control chow. […] At two months of age, mice were inoculated with α-Syn PFF unilaterally in the striatum. These treatments continued throughout the experiment until animals were sacrificed. Mice were weighed and their food and water intake was quantified weekly. Animals were housed 2-5/cage in an AAALAC approved facility in a temperature- and humidity-controlled environment under a 12-hour light/dark cycle and were maintained on a diet of lab chow and water ad libitum. All animal procedures were approved by the Rutgers-Robert Wood Johnson Medical School Institutional Animal Care and Use Committee and were performed according to the National Institutes of Health Guide for the Care and Use of Laboratory Animals.
α-Syn PFF solution was sonicated at 60% amplitude 30 times (0.5 sec on, 0.5 sec off). During the stereotactic surgery, two month old WT C57BL/6 mice were anesthetized by Ketamine/xylazine (90/4.5 mg/kg, i.p., Ketaset from Zoetis, and Anased from Akorn) and positioned in a digital stereotaxic apparatus (Stoelting, Wood Dale, Ill.). A midline sagittal incision was made in the scalp, and a hole was drilled in the skull over the right striatum according to the coordinates below. All injections were made using a Hamilton neuros syringe equipped with a 33 gauge needle and attached to a Quintessential Stereotaxic Injector (Stoelting, Wood Dale, Ill.). A total of 5∝g/2.5 ul of α-Syn PFF was infused in the dorsal striatum (+0.2 mm relative to Bregma, +2.0 mm from midline, +2.6 mm beneath the dura) at a delivery rate of 0.2∝l/min (61). The needle was kept in place for 5 min following the infusion to prevent reflux before withdrawing.
Immunohistochemical analyses were performed as described previously (Lee et al., 2011; 2012). Mice were perfused transcardially with PBS, and brains were removed and post-fixed in 10% formalin at 4° C. overnight. Fixed brains were then sectioned coronally in 30 am thickness using a cryostat and collected as sets of slices with the same interval. Free-floating sections were blocked by 1% BSA and 0.2% Triton X100 in PBS. Sections were then incubated with primary antibody overnight at 4° C. and biotinylated secondary antibody for 1 hour at room temperature.
Vectastain elite ABC kit (Vector Laboratories, Burlingame, Calif.) and 3,3′-diaminobenzidine (Sigma-Aldrich) were used for amplifying and color development. Images were captured by Nikon Eclipse 55i. Staining intensity and phosphorylated α-synuclein (p-α-Syn) aggregate counts were obtained by Image Pro Plus. Intensity calibration was set to the level of a blank area in each image. HSI (hue, saturation and intensity) was used for the color selection with the standard parameters of H: 0-30, S: 0-255 and I: 0-160. […]

[4] = system: phosphorylated α-synuclein (p-α-Syn); assay: Western blot of p-α-Syn in cortical tissue lysates, Syn^Tg mice; type: in vivo; conditions: EHT 12 mg/kg/day and/or caffeine 50 mg/kg/day until six months of age, vs untreated Syn^Tg mice
Excerpt: as §1, with “weekly.” for “weekly. Animals were housed 2-5/cage in an AAALAC approved facility in a temperature- and humidity-controlled environment under a 12-hour light/dark cycle and were maintained on a diet of lab chow and water ad libitum.”
Human neuroblastoma SH-SY5Y cells were cultured in DMEM-F12 with 10% FBS. […] Protein concentration was determined by bicinchonic acid (BCA) method (Pierce), equal amount of protein was separated on 5-20% SDS-PAGE gel (Genescript) and transferred to nitrocellulose or PVDF membrane (Biorad). […]

Syn^Tg mice = conditions: cited from earlier work
PP2A = assay: Western blot of PP2A methylation in SH-SY5Y cells challenged with α-Syn PFF; type: cell-based, Human; conditions: SH-SY5Y cells challenged with mouse α-Syn PFF for 7 days; caffeine and/or EHT added to the medium
Experimental: Human neuroblastoma SH-SY5Y cells were cultured in DMEM-F12 with 10% FBS. At 50% confluency, cells were treated with 1 gg/ml mouse α-Syn PFF in DMEM-F12 with 1% FBS for 7 days. Medium was refreshed every 3 days. Cell harvesting was done with 2% SDS in PBS supplemented with protease inhibitor (Millipore) and phosphatase inhibitor (Sigma-Aldrich). Lysates were sonicated and boiled at 95° C. for 5 minutes. Protein concentration was determined by bicinchonic acid (BCA) method (Pierce), equal amount of protein was separated on 5-20% SDS-PAGE gel (Genescript) and transferred to nitrocellulose or PVDF membrane (Biorad). Following transfer, membranes were blocked for 1 hour at room temperature in blocking buffer (Li-Cor) or 5% (w/v) BSA/TBS-Tween 0.1% (v/v). Primary antibodies were diluted in blocking buffer or 5% (w/v) BSA/TBS-Tween 0.1% (v/v) and incubated with the membranes at 4° C. overnight. Membranes were washed three times in TBS-Tween and incubated in diluted IRDye 800CW or HRP conjugated secondary antibody for 1 hour at room temperature. Following washing, membranes were scanned by Li-Cor Odyssey CLx infrared imaging system or treated with the Western Lightning ECL-plus reagents (PerkinElmer) and exposed to autoradiography films (LabScientific).

[5] = system: Tyrosine hydroxylase (TH); assay: Striatal TH staining, α-Syn PFF inoculated WT mice; type: in vivo; conditions: EHT 12 mg/kg/day and/or caffeine 50 mg/kg/day, vs untreated α-Syn PFF inoculated mice
Excerpt: as §1

SH-SY5Y cells = assay: Cytotoxicity of α-Syn PFF by propidium iodide (PI) exclusion in SH-SY5Y cells; type: cell-based, Human; conditions: SH-SY5Y cells challenged with mouse α-Syn PFF for seven days; vs untreated α-Syn PFF-challenged cells (2.5 fold increase of PI positive cells)
[6] = vs untreated α-Syn PFF inoculated mice

With `CCCCCCCCCCCCCCCCCCCC(=O)NCCc1c[nH]c2ccc(O)cc12` [EHT, eicosanoyl-5-hydroxytryptamide] the “performance on the rotarod” value [1] was “improved performance”, the “prevention of the reduction of TH positive dopaminergic neurons of the substantia nigra” value [2] was “did not prevent this reduction” and the “p-α-Syn immunoreactivity in the ipsilateral nigra” value [3] was “less abundant”. For the same compound, the “p-α-Syn in the contralateral striatum” value [3, 6] was “partially but insignificantly reduced”, the “p-α-Syn in the ipsilateral striatum” value [3, 6] was “partially but insignificantly reduced” and the “p-α-Syn levels by Western blot, cortical tissue lysates” value [4] was “no significant effect”. For the same compound, the “molecular, histochemical, and behavioral benefits” value (Syn^Tg mice; EHT 12 mg/kg/day in chow, nine months of treatment) was “partial amelioration”, the “PP2A methylation in brain tissue lysates” value (Syn^Tg mice; EHT alone for nine months, dose dependent, more evident at 120 mg/kg/day) was “modulated PP2A methylation” and the “accumulation of p-α-Syn” value (Syn^Tg mice; EHT alone for nine months, more evident at 120 mg/kg/day) was “reduced the accumulation of p-α-Syn”. The “demethylated PP2A levels” value (PP2A) was “partially reversed this trend”, the “methyl- to demethyl-PP2A ratio” value (PP2A) was “not individually” and the “methylated PP2A levels” value (PP2A) was “partially reversed this trend”. For the same compound, the “TH staining of dopaminergic terminals in the striatum (ipsilateral and contralateral)” value [5] was “non-significant increase” and the “cytotoxicity of α-Syn PFF, number of PI positive cells (cell viability)” value (SH-SY5Y cells) was “modestly protected”.
